Data published in article PMC6028563, “Probing Substituents in the 1- and 3-Position: Tetrahydropyrazino-Annelated Water-Soluble Xanthine Derivatives as Multi-Target Drugs With Potent Adenosine Receptor Antagonistic Activity” (Frontiers in Chemistry, 2018).
Where two headings read alike, the source gives them in different places.

Legend:
rat A2A AR = target: T1, rat A2A AR (Rattus norvegicus, UniProt P30543); assay: Radioligand binding assay at rat A2A AR (rat brain striatum) vs. [^3H]MSX-2; details: rat (r)
T1 construct: A2A ARs of rat brain striatal membrane preparations; from tissue; host or cells: rat brain striatum membranes
T1 sequence (P30543 whole entry): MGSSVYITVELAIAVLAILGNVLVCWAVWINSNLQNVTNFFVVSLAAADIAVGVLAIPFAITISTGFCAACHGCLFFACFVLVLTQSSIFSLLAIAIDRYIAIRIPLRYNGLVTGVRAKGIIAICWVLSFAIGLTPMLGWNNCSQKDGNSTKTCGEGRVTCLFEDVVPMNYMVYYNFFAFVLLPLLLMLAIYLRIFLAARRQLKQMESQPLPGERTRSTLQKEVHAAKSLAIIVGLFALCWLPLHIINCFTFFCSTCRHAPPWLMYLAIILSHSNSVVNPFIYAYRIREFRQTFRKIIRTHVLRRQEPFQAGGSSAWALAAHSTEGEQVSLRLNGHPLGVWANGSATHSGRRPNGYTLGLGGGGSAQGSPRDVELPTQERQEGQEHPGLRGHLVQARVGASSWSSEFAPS
Outline: (§1)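 Membranes of CHO cells recombinantly expressing single human AR subtypes served for human assays, A2B competed against [^3H]PSB-603. Native rat tissue was used otherwise: cortical membranes with [^3H]CCPA for A1, striatal membranes with [^3H]MSX-2 for A2A.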

recombinant human MAO-A [1] = target: T2, recombinant human MAO-A (Homo sapiens, UniProt P21397); assay: Monoamine oxidase assay (Amplex Red), MAO-A; assay type: biochemical; details: for inhibition at 10 µM: at 10,000 nM, read-out: % inhibition at indicated concentration, Human MAO-A; for IC50: n = 3, read-out: IC50 ± SEM, Human MAO-A
T2 construct: purchased Sigma-Aldrich M7316; host or cells: baculovirus-infected insect cells
T2 sequence (P21397 1-527): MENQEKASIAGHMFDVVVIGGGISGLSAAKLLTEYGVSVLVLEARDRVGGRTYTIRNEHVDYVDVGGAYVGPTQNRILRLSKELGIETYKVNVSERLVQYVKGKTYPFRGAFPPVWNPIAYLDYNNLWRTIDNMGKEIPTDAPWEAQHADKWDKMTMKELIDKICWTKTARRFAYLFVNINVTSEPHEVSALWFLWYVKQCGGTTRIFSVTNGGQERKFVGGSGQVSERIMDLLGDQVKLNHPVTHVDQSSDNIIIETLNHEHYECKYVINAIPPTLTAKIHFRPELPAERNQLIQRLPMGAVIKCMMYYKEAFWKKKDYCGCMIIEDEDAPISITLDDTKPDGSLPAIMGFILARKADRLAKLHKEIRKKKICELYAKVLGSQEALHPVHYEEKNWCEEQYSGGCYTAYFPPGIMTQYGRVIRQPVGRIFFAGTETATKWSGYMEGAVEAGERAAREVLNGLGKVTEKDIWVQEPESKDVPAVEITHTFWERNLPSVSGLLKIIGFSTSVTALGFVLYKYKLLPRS
Outline: (§2)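 Inhibition was measured with an Amplex Red monoamine oxidase assay, using human MAO-A and MAO-B produced recombinantly in baculovirus-infected insect cells. For rat MAO-B, liver mitochondria-enriched fractions from male Sprague Dawley rats served as enzyme source.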

ARs = assay: Radioligand binding assays at adenosine receptors (statements on ARs in general)
Experimental: Membrane preparations and radioligand binding assays at rat A1 (rat brain cortex) and rat A2A ARs (rat brain striatum) were performed as previously described (Ozola et al., [2003]; Alnouri et al., [2015]). For assays at human A1, A2A, A2B, and A3 ARs, CHO cell membranes expressing one of the human AR subtypes were used as previously reported (Klotz et al., [1998]; Alnouri et al., [2015]; De Filippo et al., [2016]).
The synthesized tetrahydropyrazino[2,1-f ]purinediones 13–20 were evaluated in radioligand binding assays for their affinity to A1 ARs of rat brain cortical membrane and to A2A ARs of rat brain striatal membrane preparations. Selected compounds were further investigated for their affinity to human A1 and A2A ARs recombinantly expressed in Chinese hamster ovary (CHO) cells. All compounds were additionally investigated for their affinity to human A2B and A3 ARs recombinantly expressed in CHO cells to determine their AR subtype selectivity. […] It is well known that all xanthine derivatives lacking a ribose moiety, including tricyclic compounds, can only block ARs, but never act as AR agonists; therefore, additional functional studies were not required. […] Potent MAO-B inhibitors were additionally investigated for inhibition of human MAO-A to assess their selectivity. Results are presented in Tables 1–6, and data of standard ligands are included for comparison.

human A3 AR [2] = target: T3, human A3 AR (Homo sapiens, UniProt P0DMS8); assay: Radioligand binding assay at human A3 AR vs. [^3H]PSB-11
T3 construct: expressed in transfected cells; host or cells: CHO cells
T3 sequence (P0DMS8 1-318): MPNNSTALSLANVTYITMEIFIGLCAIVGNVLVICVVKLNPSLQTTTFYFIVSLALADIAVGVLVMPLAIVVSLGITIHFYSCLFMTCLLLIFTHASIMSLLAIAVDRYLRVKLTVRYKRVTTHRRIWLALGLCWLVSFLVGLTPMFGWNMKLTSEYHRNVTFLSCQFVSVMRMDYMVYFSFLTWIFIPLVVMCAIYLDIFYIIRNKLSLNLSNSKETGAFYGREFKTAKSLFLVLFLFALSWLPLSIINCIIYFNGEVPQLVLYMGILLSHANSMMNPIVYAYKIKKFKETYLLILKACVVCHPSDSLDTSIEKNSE
Outline: as §1

human A2B AR = target: T4, human A2B AR (Homo sapiens, UniProt P29275); assay: Radioligand binding assay at human A2B AR vs. [^3H]PSB-603
T4 construct: expressed in transfected cells; host or cells: CHO cells
T4 sequence (P29275 1-332): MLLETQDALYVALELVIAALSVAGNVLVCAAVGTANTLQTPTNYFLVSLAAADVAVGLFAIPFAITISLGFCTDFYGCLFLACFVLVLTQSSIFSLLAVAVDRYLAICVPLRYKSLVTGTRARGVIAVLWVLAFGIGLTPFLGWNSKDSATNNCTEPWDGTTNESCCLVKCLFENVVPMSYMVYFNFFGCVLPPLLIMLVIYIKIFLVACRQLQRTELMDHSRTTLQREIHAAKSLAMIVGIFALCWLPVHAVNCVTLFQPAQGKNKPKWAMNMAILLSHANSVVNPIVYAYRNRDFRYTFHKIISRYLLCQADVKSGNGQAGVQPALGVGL
Outline: as §1

recombinant human MAO-B [3] = target: T5, recombinant human MAO-B (Homo sapiens, UniProt P27338); assay: Monoamine oxidase assay (Amplex Red), MAO-B; assay type: biochemical; details: for inhibition at 10 µM: at 10,000 nM (10 μM), read-out: % inhibition at indicated concentration, Human MAO-B; for IC50: n = 3, read-out: IC50 ± SEM, Human MAO-B
T5 construct: purchased Sigma-Aldrich M7441; host or cells: baculovirus-infected insect cells
T5 sequence (P27338 1-520): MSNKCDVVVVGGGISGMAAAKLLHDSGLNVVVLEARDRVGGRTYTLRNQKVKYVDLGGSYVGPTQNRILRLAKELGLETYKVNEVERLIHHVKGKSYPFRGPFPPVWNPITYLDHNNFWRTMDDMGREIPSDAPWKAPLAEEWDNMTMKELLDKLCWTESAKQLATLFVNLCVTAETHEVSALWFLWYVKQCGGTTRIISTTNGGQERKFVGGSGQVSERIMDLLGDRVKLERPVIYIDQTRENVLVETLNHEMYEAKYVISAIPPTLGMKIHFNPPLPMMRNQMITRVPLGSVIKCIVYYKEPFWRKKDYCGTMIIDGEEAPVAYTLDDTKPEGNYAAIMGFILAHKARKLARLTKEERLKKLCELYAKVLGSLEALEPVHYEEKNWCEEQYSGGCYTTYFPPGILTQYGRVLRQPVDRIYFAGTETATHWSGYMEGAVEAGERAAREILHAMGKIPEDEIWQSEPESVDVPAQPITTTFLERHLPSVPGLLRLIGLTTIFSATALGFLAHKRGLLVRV
Outline: as §2

rat A1 AR = target: T6, rat A1 AR (Rattus norvegicus, UniProt P25099); assay: Radioligand binding assay at rat A1 AR (rat brain cortex) vs. [^3H]CCPA; details: rat (r)
T6 construct: A1 ARs of rat brain cortical membrane; from tissue; host or cells: rat brain cortex membranes
T6 sequence (P25099 1-326): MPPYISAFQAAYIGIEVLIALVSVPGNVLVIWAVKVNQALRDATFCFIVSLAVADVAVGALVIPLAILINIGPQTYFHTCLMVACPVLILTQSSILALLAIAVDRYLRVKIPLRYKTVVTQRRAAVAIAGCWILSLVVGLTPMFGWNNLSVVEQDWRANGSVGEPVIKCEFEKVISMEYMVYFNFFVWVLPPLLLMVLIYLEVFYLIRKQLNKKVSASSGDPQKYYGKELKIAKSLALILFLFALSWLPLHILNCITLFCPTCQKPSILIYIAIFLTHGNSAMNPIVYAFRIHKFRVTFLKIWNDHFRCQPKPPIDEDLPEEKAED
Outline: as §1

recombinant human MAO-A [4] = target: T2, recombinant human MAO-A; details: human (h); Figure 1; ref Petzer et al., 2009; Müller and Jacobson, 2011; Brunschweiger et al., 2014; cited from earlier work
recombinant human MAO-B [5] = target: T5, recombinant human MAO-B; details: human (h); Figure 1; ref Petzer et al., 2009; Müller and Jacobson, 2011; Brunschweiger et al., 2014; cited from earlier work
passive avoidance test = tested on: passive avoidance test; parameters: method as in Mihara et al., 2007; details: rats; ref Mihara et al., 2007; cited from earlier work
[6] = tested on: haloperidol-induced catalepsy; parameters: method as in Mihara et al., 2007; details: monkeys; ref Mihara et al., 2007; cited from earlier work
human A3 AR [7] = target: T3, human A3 AR; details: human (h); Figure 2; ref Chen et al., 2002; Stössel et al., 2013; Mihara et al., 2007; read-out: A3 (Ki); cited from earlier work

| SMILES | % inhibition of radioligand binding at indicated concentration, A2A vs. [^3H]MSX-2 (rat A2A AR; at 1,000 nM) | Ki (rat A2A AR; rat brain striatum, n = 3, read-out: Ki ± SEM, A2A vs. [^3H]MSX-2) | inhibition at 10 µM (recombinant human MAO-A [1]) | IC50 (recombinant human MAO-A [1]) | affinity for ARs (in words) (ARs) | Ki (human A3 AR [2]; CHO cell membranes, n = 2 (n = 3 where marked a), read-out: Ki ± SEM, A3 vs. [^3H]PSB-11) | inhibition at 10 µM (human A3 AR [2]; at 10,000 nM, read-out: % inhibition of radioligand binding at indicated concentration, A3 vs. [^3H]PSB-11) | Ki (human A2B AR; CHO cell membranes, n = 2 (n = 3 where marked a), read-out: Ki ± SEM, A2B vs. [^3H]PSB-603) | inhibition at 1 µM (human A2B AR; at 1,000 nM, read-out: % inhibition of radioligand binding at indicated concentration, A2B vs. [^3H]PSB-603) | inhibition at 10 µM (recombinant human MAO-B [3]) | IC50 (recombinant human MAO-B [3]) | Ki (rat A1 AR; rat brain cortex, n = 3) | inhibition at 1.5 µM (rat A1 AR; read-out: % inhibition of radioligand binding at indicated concentration, A1 vs. [^3H]CCPA, at 1,500 nM) | IC50 (recombinant human MAO-A [4]) | IC50 (recombinant human MAO-B [5]) | result in the passive avoidance test (passive avoidance test) | effect on haloperidol-induced catalepsy [6] | Ki (human A3 AR [7]) |
| --- | --- | --- | --- | --- | --- | --- | --- | --- | --- | --- | --- | --- | --- | --- | --- | --- | --- | --- |
| CCn1c(=O)c2c(nc3n2CCN(Cc2cc(C(F)(F)F)cc(C(F)(F)F)c2)C3)n(C)c1=O [Compound 14q, 8-(3,5-bis(trifluoromethyl)benzyl)-3-ethyl-1-methyl-6,7,8,9-tetrahydropyrazino[2,1-f]purine-2,4(1H,3H)-dione] | 39% | > 1 µM | 8% | > 10 µM | nearly inactive | > 10 µM | 32% | > 1 µM | 2% | 56% | < 10 µM | > 1.5 µM | 31% | – | – | – | – | – |
| CCn1c(=O)c2c(nc(/C=C/c3ccc(OC)c(OC)c3)n2C)n(CC)c1=O [Istradefylline, istradefylline, reference compound] | – | – | 18% | > 10 µM | – | – | – | – | – | 20% | > 10 µM | – | – | > 10 µM | > 10 µM | inactive | – | – |
| CC(C)n1cc(-c2ncc(N)nc2-c2ccc(F)cc2)ccc1=O [ASP-5854, 5-[5-amino-3-(4-fluorophenyl)pyrazin-2-yl]-1-isopropylpyridine-2(1H)-one] | – | – | – | – | – | – | – | – | – | – | – | – | – | – | – | positive results | reversed | > 0.557 µM |
